Measurements from US20230233569A1 (Revolution Medicines, Inc., priority 2020, published 2023).
Where two headings read alike, the source gives them in different places.

Key:
Experiment in all cases: Ras-Raf disruption / FRET / MOA assay (BRAF RBD)
Assay type in all cases: biochemical
KRAS G12D = KRAS G12D (Homo sapiens, UniProt P01116+P62937, G12D); conditions: with Cyclophilin A
How it was run: (§1)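 Compound-induced Ras–Cyclophilin A ternary complex disrupting BRAF RBD binding, read as IC50 from reduced TR-FRET ratio relative to DMSO. Final: Ras-GMPPNP 12.5 nM, BRAF RBD 50 nM, Cyclophilin A 25 μM, top compound 30 μM (3-fold, 10 points); 3 h at 25 °C, then 1.5 h with detection antibodies.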

KRAS G12S = KRAS G12S (Homo sapiens, UniProt P01116+P62937, G12S); conditions: with Cyclophilin A
How it was run: as §1

KRAS G12V = KRAS G12V (Homo sapiens, UniProt P01116+P62937, G12V); conditions: with Cyclophilin A
How it was run: as §1

KRAS G13C = KRAS G13C (Homo sapiens, UniProt P01116+P62937, G13C); conditions: with Cyclophilin A
How it was run: as §1

KRAS G13D = KRAS G13D (Homo sapiens, UniProt P01116+P62937, G13D); conditions: with Cyclophilin A
How it was run: as §1

KRAS Q61H = KRAS Q61H (Homo sapiens, UniProt P01116+P62937, Q61H)
How it was run: as §1

KRAS WT = KRAS WT (Homo sapiens, UniProt P01116+P62937); conditions: with Cyclophilin A
How it was run: as §1

NRAS G12C = NRAS G12C (Homo sapiens, UniProt P01111+P62937, G12C)
How it was run: as §1

NRAS Q61K = NRAS Q61K (Homo sapiens, UniProt P01111+P62937, Q61K)
How it was run: as §1

NRAS Q61R = NRAS Q61R (Homo sapiens, UniProt P01111+P62937, Q61R)
How it was run: as §1

NRAS WT = NRAS WT (Homo sapiens, UniProt P01111+P62937)
How it was run: as §1

KRAS G12C = KRAS G12C (Homo sapiens, UniProt P01116+P62937, G12C); conditions: with Cyclophilin A
How it was run: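 TR-FRET read-out after 1.5 h with anti-His Eu-W1024 (10 nM) and anti-GST APC (50 nM), following 3 h at 25 °C of compound (top 30 μM, 3-fold, 10 points) with 25 μM Cyclophilin A, 12.5 nM GMPPNP-loaded K-Ras G12C and 50 nM BRAF RBD; IC50 reported.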

[1] = KRAS G12D FRET data IC50, Ras-Raf disruption
[2] = KRAS G12S FRET data IC50, Ras-Raf disruption
[3] = KRAS G12V FRET data IC50, Ras-Raf disruption
[4] = KRAS G13C FRET data IC50, Ras-Raf disruption
[5] = KRAS G13D FRET data IC50, Ras-Raf disruption
[6] = KRAS WT FRET data IC50, Ras-Raf disruption
[7] = NRAS G12C FRET data IC50, NRAS G12C
[8] = KRAS G12C FRET data IC50, Ras-Raf disruption
[9] = Ras-Raf disruption, read-out: KRAS G12D FRET data IC50
[10] = Ras-Raf disruption, read-out: KRAS G12S FRET data IC50
[11] = Ras-Raf disruption, read-out: KRAS G12V FRET data IC50
[12] = Ras-Raf disruption, read-out: KRAS G13C FRET data IC50
[13] = Ras-Raf disruption, read-out: KRAS G13D FRET data IC50
[14] = KRAS Q61H, read-out: KRAS Q61H FRET data IC50
[15] = Ras-Raf disruption, read-out: KRAS WT FRET data IC50
[16] = NRAS G12C, read-out: NRAS G12C FRET data IC50
[17] = NRAS Q61K, read-out: NRAS Q61K FRET data IC50
[18] = NRAS Q61R, read-out: NRAS Q61R FRET data IC50
[19] = NRAS WT, read-out: NRAS WT FRET data IC50
[20] = Ras-Raf disruption, read-out: KRAS G12C FRET data IC50

KRAS G12C, sequence (P01116 1-169 isoform P01116-2 G12C limits assumed): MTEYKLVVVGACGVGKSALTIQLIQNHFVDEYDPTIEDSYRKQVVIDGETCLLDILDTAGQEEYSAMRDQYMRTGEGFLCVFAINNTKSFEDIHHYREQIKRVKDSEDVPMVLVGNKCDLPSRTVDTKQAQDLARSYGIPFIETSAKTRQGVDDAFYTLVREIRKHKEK
KRAS G12C, sequence (P62937 whole entry): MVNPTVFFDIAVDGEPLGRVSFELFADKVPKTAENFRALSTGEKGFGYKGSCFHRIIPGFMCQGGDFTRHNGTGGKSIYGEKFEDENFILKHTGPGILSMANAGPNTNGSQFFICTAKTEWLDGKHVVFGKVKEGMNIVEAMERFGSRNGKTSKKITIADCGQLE
KRAS G13C, sequence (P01116 1-169 isoform P01116-2 G13C limits assumed): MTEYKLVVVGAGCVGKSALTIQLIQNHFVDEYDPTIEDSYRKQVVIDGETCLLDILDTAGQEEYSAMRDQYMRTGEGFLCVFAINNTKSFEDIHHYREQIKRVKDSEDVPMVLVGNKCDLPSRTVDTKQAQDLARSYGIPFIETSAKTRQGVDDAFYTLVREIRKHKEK
KRAS G13C, sequence (P62937 whole entry): as the sequence (P62937 whole entry) above
KRAS Q61H, sequence (P01116 1-169 isoform P01116-2 Q61H limits assumed): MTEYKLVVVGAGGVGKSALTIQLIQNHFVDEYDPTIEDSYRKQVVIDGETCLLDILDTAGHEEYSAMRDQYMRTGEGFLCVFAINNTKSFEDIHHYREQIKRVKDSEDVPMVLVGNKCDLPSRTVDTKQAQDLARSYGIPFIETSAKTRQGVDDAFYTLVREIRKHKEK
KRAS Q61H, sequence (P62937 whole entry): as the sequence (P62937 whole entry) above
NRAS Q61R, sequence (P01111 whole entry Q61R): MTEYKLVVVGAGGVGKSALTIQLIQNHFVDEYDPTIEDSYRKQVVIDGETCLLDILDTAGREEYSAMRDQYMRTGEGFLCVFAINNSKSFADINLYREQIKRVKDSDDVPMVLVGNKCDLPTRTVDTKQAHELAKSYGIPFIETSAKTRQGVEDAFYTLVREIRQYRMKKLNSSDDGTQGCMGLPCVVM
NRAS Q61R, sequence (P62937 whole entry): as the sequence (P62937 whole entry) above
KRAS WT, sequence (P01116 1-169 isoform P01116-2 limits assumed): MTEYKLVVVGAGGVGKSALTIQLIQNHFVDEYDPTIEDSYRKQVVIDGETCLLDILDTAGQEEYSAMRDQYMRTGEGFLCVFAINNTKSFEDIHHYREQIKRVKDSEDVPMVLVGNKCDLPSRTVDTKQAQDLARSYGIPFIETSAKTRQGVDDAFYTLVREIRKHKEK
KRAS WT, sequence (P62937 whole entry): as the sequence (P62937 whole entry) above
NRAS WT, sequence (P01111 whole entry): as the sequence (P01111 whole entry Q61R) above, with R61Q counted along it
NRAS WT, sequence (P62937 whole entry): as the sequence (P62937 whole entry) above
NRAS G12C, sequence (P01111 whole entry G12C): as the sequence (P01111 whole entry Q61R) above, with G12C, R61Q counted along it
NRAS G12C, sequence (P62937 whole entry): as the sequence (P62937 whole entry) above
KRAS G12S, sequence (P01116 1-169 isoform P01116-2 G12S limits assumed): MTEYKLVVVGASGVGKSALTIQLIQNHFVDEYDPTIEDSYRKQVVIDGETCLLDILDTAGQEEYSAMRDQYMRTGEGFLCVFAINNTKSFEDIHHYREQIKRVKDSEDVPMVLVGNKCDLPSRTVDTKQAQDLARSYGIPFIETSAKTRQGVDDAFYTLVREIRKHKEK
KRAS G12S, sequence (P62937 whole entry): as the sequence (P62937 whole entry) above
KRAS G12D, sequence (P01116 1-169 isoform P01116-2 G12D limits assumed): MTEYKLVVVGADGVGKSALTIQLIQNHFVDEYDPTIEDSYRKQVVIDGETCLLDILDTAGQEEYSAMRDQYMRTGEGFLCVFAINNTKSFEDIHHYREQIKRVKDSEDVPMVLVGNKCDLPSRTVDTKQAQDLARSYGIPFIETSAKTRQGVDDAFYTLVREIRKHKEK
KRAS G12D, sequence (P62937 whole entry): as the sequence (P62937 whole entry) above
NRAS Q61K, sequence (P01111 whole entry Q61K): as the sequence (P01111 whole entry Q61R) above, with R61K counted along it
NRAS Q61K, sequence (P62937 whole entry): as the sequence (P62937 whole entry) above
KRAS G12V, sequence (P01116 1-169 isoform P01116-2 G12V limits assumed): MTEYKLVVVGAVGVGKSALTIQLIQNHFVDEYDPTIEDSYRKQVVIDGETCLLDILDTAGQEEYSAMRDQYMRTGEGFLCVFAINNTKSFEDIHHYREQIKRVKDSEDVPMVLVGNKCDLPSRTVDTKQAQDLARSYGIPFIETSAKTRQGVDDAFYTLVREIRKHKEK
KRAS G12V, sequence (P62937 whole entry): as the sequence (P62937 whole entry) above
KRAS G13D, sequence (P01116 1-169 isoform P01116-2 G13D limits assumed): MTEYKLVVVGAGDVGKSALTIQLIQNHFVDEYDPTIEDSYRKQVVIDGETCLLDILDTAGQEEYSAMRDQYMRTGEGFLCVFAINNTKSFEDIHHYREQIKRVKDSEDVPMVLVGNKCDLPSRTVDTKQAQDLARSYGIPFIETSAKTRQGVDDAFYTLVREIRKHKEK
KRAS G13D, sequence (P62937 whole entry): as the sequence (P62937 whole entry) above

Compound	IC50 (KRAS G12D; [1]) [nM]	IC50 (KRAS G12S; [2]) [nM]	IC50 (KRAS G12V; [3]) [nM]	IC50 (KRAS G13C; [4]) [nM]	IC50 (KRAS G13D; [5]) [nM]	IC50 (KRAS Q61H) [nM]	IC50 (KRAS WT; [6]) [nM]	IC50 (NRAS G12C; [7]) [nM]	IC50 (NRAS Q61K) [nM]	IC50 (NRAS Q61R) [nM]	IC50 (NRAS WT) [nM]	IC50 (KRAS G12C; [8]) [nM]	IC50 (KRAS G12D; [9]) [nM]	IC50 (KRAS G12S; [10]) [nM]	IC50 (KRAS G12V; [11]) [nM]	IC50 (KRAS G13C; [12]) [nM]	IC50 (KRAS G13D; [13]) [nM]	IC50 (KRAS Q61H; [14]) [nM]	IC50 (KRAS WT; [15]) [nM]	IC50 (NRAS G12C; [16]) [nM]	further results
CCn1c(-c2cccnc2[C@H](C)OC)c2c3cc(ccc31)-c1cc(O)cc(c1)C[C@H](NC(=O)[C@H](C1CCCC1)N(C)C(=O)CN(C)C(=O)[C@H]1[C@@H](C3CC3)N1CCCOC)C(=O)N1CCC[C@H](N1)C(=O)OCC(C)(C)C2 (stereo partly drawn) [Example 317]	100 to 1000	10 to 100	10 to 100	10 to 100	100 to 1000	10 to 100	10 to 100	10 to 100	100 to 1000	100 to 1000	10 to 100	10 to 100	–	–	–	–	–	–	–	–	–
CCn1c(-c2cccnc2[C@H](C)OC)c2c3cc(ccc31)-c1cc(cc(C(F)F)c1)C[C@H](NC(=O)[C@H](C1CCCC1)N(C)C(=O)CN(C)C(=O)[C@@H]1N[C@@H]1C1CC1)C(=O)N1CCC[C@H](N1)C(=O)OCC(C)(C)C2 [Example 320]	1000 to 10000	1000 to 10000	1000 to 10000	100 to 1000	1000 to 10000	100 to 1000	1000 to 10000	100 to 1000	1000 to 10000	1000 to 10000	1000 to 10000	100 to 1000	–	–	–	–	–	–	–	–	–
CCn1c(-c2cc(N3CCN(C)CC3)cnc2[C@H](C)OC)c2c3cc(ccc31)-c1cc(O)cc(c1)C[C@H](NC(=O)[C@H](C1CCCC1)N(C)C(=O)CN(C)C(=O)[C@@H]1N[C@@H]1C1CC1)C(=O)N1CCC[C@H](N1)C(=O)OCC(C)(C)C2 [Example 325]	< 10	< 10	< 10	< 10	10 to 100	< 10	< 10	< 10	10 to 100	10 to 100	< 10	< 10	–	–	–	–	–	–	–	–	–
CCn1c(-c2cccnc2[C@H](C)OC)c2c3cc(ccc31)-c1cc(O)cc(c1)C[C@H](NC(=O)[C@H](C1CCCC1)N(C)C(=O)[C@@H](C)N(C)C(=O)[C@@H]1N[C@@H]1C1CC1)C(=O)N1CCC[C@H](N1)C(=O)OCC(C)(C)C2 [Example 327]	1000 to 10000	> 10000	> 10000	1000 to 10000	> 10000	1000 to 10000	1000 to 10000	1000 to 10000	> 10000	> 10000	> 10000	1000 to 10000	–	–	–	–	–	–	–	–	–
CCn1c(-c2cccnc2[C@H](C)OC)c2c3cc(ccc31)-c1cc(O)cc(c1)C[C@H](NC(=O)[C@H](C1CCCC1)N(C)C(=O)[C@H](C)N(C)C(=O)[C@@H]1N[C@@H]1C1CC1)C(=O)N1CCC[C@H](N1)C(=O)OCC(C)(C)C2 [Example 328]	100 to 1000	10 to 100	10 to 100	10 to 100	100 to 1000	10 to 100	10 to 100	10 to 100	100 to 1000	100 to 1000	10 to 100	10 to 100	–	–	–	–	–	–	–	–	–
CCOC(=O)[C@H]1O[C@@H]1C(=O)N1CC[C@H](C(=O)N(C)[C@H](C(=O)N[C@H]2Cc3cc(O)cc(c3)-c3ccc4c(c3)c(c(-c3cccnc3[C@H](C)OC)n4CC)CC(C)(C)COC(=O)[C@@H]3CCCN(N3)C2=O)C(C)C)C1 [Example 329]	–	–	–	–	–	–	–	–	–	–	–	–	100 to 1000	10 to 100	10 to 100	< 10	10 to 100	10 to 100	10 to 100	< 10	IC50 (NRAS Q61K; [17]): 10 to 100 nM; IC50 (NRAS Q61R; [18]): 10 to 100 nM; IC50 (NRAS WT; [19]): 10 to 100 nM; IC50 (KRAS G12C; [20]): < 10 nM
CCn1c(-c2cccnc2[C@H](C)OC)c2c3cc(ccc31)-c1cc(O)cc(c1)C[C@H](NC(=O)[C@H](C(C)C)N(C)C(=O)[C@H]1CCN(C(=O)C3CO3)C1)C(=O)N1CCC[C@H](N1)C(=O)OCC(C)(C)C2 (stereo partly drawn) [Example 330]	–	–	–	–	–	–	–	–	–	–	–	–	10 to 100	10 to 100	10 to 100	< 10	10 to 100	10 to 100	10 to 100	< 10	IC50 (NRAS Q61K; [17]): 100 to 1000 nM; IC50 (NRAS Q61R; [18]): 100 to 1000 nM; IC50 (NRAS WT; [19]): 10 to 100 nM; IC50 (KRAS G12C; [20]): < 10 nM
CCn1c(-c2cccnc2[C@H](C)OC)c2c3cc(ccc31)-c1cc(O)cc(c1)C[C@H](NC(=O)[C@H](C(C)C)N(C)C(=O)[C@H]1CCN(C(=O)C3OC3c3ccccc3)C1)C(=O)N1CCC[C@H](N1)C(=O)OCC(C)(C)C2 (stereo partly drawn) [Example 331]	–	–	–	–	–	–	–	–	–	–	–	–	100 to 1000	10 to 100	10 to 100	10 to 100	100 to 1000	10 to 100	10 to 100	10 to 100	IC50 (NRAS Q61K; [17]): 100 to 1000 nM; IC50 (NRAS Q61R; [18]): 100 to 1000 nM; IC50 (NRAS WT; [19]): 10 to 100 nM; IC50 (KRAS G12C; [20]): < 10 nM
CCn1c(-c2cccnc2[C@H](C)OC)c2c3cc(ccc31)-c1cc(O)cc(c1)C[C@H](NC(=O)[C@H](C(C)C)N(C)C(=O)[C@H]1CCN(C(=O)C3(C)CO3)C1)C(=O)N1CCC[C@H](N1)C(=O)OCC(C)(C)C2 (stereo partly drawn) [Example 332]	–	–	–	–	–	–	–	–	–	–	–	–	100 to 1000	10 to 100	10 to 100	10 to 100	10 to 100	10 to 100	10 to 100	10 to 100	IC50 (NRAS Q61K; [17]): 100 to 1000 nM; IC50 (NRAS Q61R; [18]): 100 to 1000 nM; IC50 (NRAS WT; [19]): 10 to 100 nM; IC50 (KRAS G12C; [20]): 10 to 100 nM
